Laboratory results reported in patent US20020026053A1, “Novel 3-(substituted) -2- indolinones compounds and use thereof as inhibitors of protein kinase activity” (priority 1997, published 2002).

Test system: PDGF-R
Assay: PDGF-R Assay (cellular ELISA, U1242 cells)
Format: cell-based
Design: concentration or dose not given beside the values
Conditions: protocol P.119
Summary of the method: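 Cellular ELISA for receptor autophosphorylation: after 2 hr test-compound treatment of serum-free U1242 cells at 37°C, ligand is added for 5–10 min, cells are lysed (HNTG) and receptor captured by specific antibody. Anti-phosphotyrosine plus secondary antibody with ABTS colour read at 410/630 nm, compared with compound-free control cells.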

SMILES | PDGF Kinase % Inhibition (P.119) [%]
O=C1Nc2ccc(S(=O)(=O)Nc3ccc(C(F)(F)F)cc3)cc2C1=Cc1cccc(Oc2cccc(C(F)(F)F)c2)c1 [10737/E11] | 38.0
O=C1Nc2ccc(I)cc2C1=Cc1ccc(Oc2ccccc2)cc1 [10737/B09] | −14.1
